Data on 23 molecules can be found in patent US6593335B1, “Potassium channel openers” (Abbott Laboratories, priority 1997, dated 2003).

The experiment concerns the target potassium channels (Sus scrofa, UniProt F1SR11). The experiment in a line: Functional potassium channel opening activity in isolated Landrace pig bladder strips (field-stimulated twitch). The settings on record: for Landrace Pig Bladder Index: ED50 for P1075 divided by ED50 for the test agonist, averaged over tissues; for Landrace Pig Bladder pD2: negative logarithm of ED50; for Emax: pig; for Emax / Landrace Pig Bladder Efficacy (% P1075): maximal efficacy relative to P1075, field stimulation 0.05Hz, 0.5 milli-seconds at 20 volts. The protocol:
The entire bladder was removed and ed into Krebs Ringer bicarbonate solution (composition, mM: NaCl,; dextrose, 1; KCl, 4.7; […] Propranolol (0.004 ed in all of the assays to block […]. The trigonal and dome […]. Strips 3-5 mm wide and 20 mm long were prepared from the cut in a circular fashion. The mucosal layer was removed. One end ationary glass rod and the other to a Grass FT03 transducer at a basal am. Two parallel platinum electrodes were included in the stationary ide field stimulation of 0.05Hz, 0.5 milli-seconds at 20 volts. […] Tissues were allowed to equilibrate for at least 60 minutes and primed with 80 mM KCl. A control concentration response curve (cumulative) was generated for each tissue using the potassium channel opener […] as the control agonist. […] After a 60 minute rinsing period, a concentration response curve (cumulative) was generated for the test agonist in the same fashion as that used for the control agonist […]. The maximal efficacy of each compound (expressed as % relative to […]) is reported. […] J. Physiol. 235, E97 (1980)), and agonist potencies were expressed as pD2 (the negative logarithm). Agonist potencies were also expressed as an index relative to […]. The index was calculated by dividing the ED50 for […] by the ED50 for the test agonist in a given tissue. Each tissue was used for only one test agonist, and the indices obtained from each tissue were averaged to provide an average index of potency.

Regarding `CC1=C(S(C)(=O)=O)C(c2ccc(F)c(Br)c2)C2=C(CCCC2=O)N1` (stereo not drawn) [Example 25, 4-(3-bromo-4-fluorophenyl)-4,6,7,8-tetrahydro-2-methyl-3-(methylsulfonyl)-5(1H)-guinolinone], the “Landrace Pig Bladder Index” value is 0.038; the “Landrace Pig Bladder pD2” value came to 5.4; the Emax (usually the maximal effect, on the per cent scale that the assay sets) worked out at 88%.

In the case of `O=C1CCCC2=C1C(c1ccc3nonc3c1)C1=C(CCS1(=O)=O)N2` (single isomer, unassigned; (+)) [Example 97, (+)-9-(2. 1,3-benzoxadiazol-5-yl)-2,3,5,6,7,9-hexahydrothieno[3.2-b]quinolin-8(4H)-one, 11-dioxide], the “Landrace Pig Bladder Index” value amounted to 0.059, the “Landrace Pig Bladder pD2” value is reported as 5.7 and the Emax came out at 100%.

As for `O=S1(=O)CCC2=C1C(c1ccc(F)c(Br)c1)C=C(C(F)(F)F)N2` (stereo not drawn) [Example 112, 7-(3-bromo-4-fluorophenyl)-5-(trifluoromethyl)-2,3,4,7-tetrahydrothieno [3,2-b]pyridine. 1,1-dioxide], the “Landrace Pig Bladder Index” value came out at 0.032, the “Landrace Pig Bladder pD2” value turned out to be 5.7 and the Emax came out at 99%.

For `O=C1CCC2=C1C(c1ccc(F)c(Br)c1)C1=C(CCCS1(=O)=O)N2` (single isomer, unassigned; (-)) [Example 92], the “Landrace Pig Bladder Index” value was found to be 0.44, the “Landrace Pig Bladder Efficacy (% P1075)” value was 100 % P1075 and the “Landrace Pig Bladder pD2” value was 6.5.

As to `O=C1CCCC2=C1C(c1ccc(Cl)c(Cl)c1)C1=C(CCS1(=O)=O)N2` (single isomer, unassigned; (+)) [Example 95, (+)-9-(3,4-dichlorophenyl)-2,3,5,6,7,9-hexahydrothieno[3,2-b]quinolin-8(4H)-one, 1,1-dioxide], the “Landrace Pig Bladder Index” value is reported as 0.12, the “Landrace Pig Bladder pD2” value came to 5.6 and the Emax was 84%.

Take `O=C1CCCC2=C1C(c1ccc(F)c(Br)c1)C1=C(CCCS1(=O)=O)N2` (single isomer, unassigned; (+)) [Example 93, (+)-I 0-(3-bromo-4-fluorophenyl)-3,4,6,7,8,10-hexahydro-2H-thiopyrano[3 2-b]quinolin-9(5H)-one, 1,1-dioxide]: the “Landrace Pig Bladder Index” value turned out to be 0.02, the “Landrace Pig Bladder pD2” value is 5.2 and the maximum response (Emax) turned out to be 100%.

With `O=C1CCC2=C1C(c1ccc(Cl)c([N+](=O)[O-])c1)C1=C(CCS1(=O)=O)N2` (single isomer, unassigned) [Example 161], the “Landrace Pig Bladder Index” value came to 0.23, the “Landrace Pig Bladder pD2” value is reported as 6.3 and the Emax came to 96%.

For `O=C1CCCC2=C1C(c1ccc(F)c(Br)c1)C1=C(CCCS1(=O)=O)N2` (stereo not drawn) [Example 4, 10-(3-bromo-4-fluorophenyl)-3,4,6,7,8,10-hexahydro-2H-thiopyrano [3,2-b]quinolin-9(5H)-one, 1,1-dioxide], the “Landrace Pig Bladder Index” value is on record as 0.18, the “Landrace Pig Bladder pD2” value amounted to 6.2 and the Emax worked out at 93%.

For the molecule `O=C1CCCC2=C1C(c1ccc(F)c(Br)c1)C1=C(CCCS1(=O)=O)N2` (single isomer, unassigned; (-)) [Example 94, (−)-10-(3-bromo-4-fluorophenyl)-3,4,6,7,8,10-hexahydro-2H-thiopyrano[3,2-b]quinolin-9(5H)-one 1,1-dioxide], the “Landrace Pig Bladder Index” value is recorded as 0.31, the “Landrace Pig Bladder Efficacy (% P1075)” value was found to be 94 % P1075 and the “Landrace Pig Bladder pD2” value was determined as 6.4.

For the molecule `O=C1CCCC2=C1C(c1ccc(F)c(Cl)c1)C1=C(CCS1(=O)=O)N2` (single isomer, unassigned; (-)) [Example 110, (−)-9-(3-chloro-4-fluorophenyl)-2,3,5,6,7,9-hexahydrothieno[3.2-b]quinolin-8(4H)-one, 1,1-dioxide], the “Landrace Pig Bladder Index” value is reported as 0.17, the “Landrace Pig Bladder Efficacy (% P1075)” value is reported as 100 % P1075 and the “Landrace Pig Bladder pD2” value turned out to be 6.7.

`O=C1CCC2=C1C(c1ccc(F)c(Cl)c1)C1=C(CCS1(=O)=O)N2` (stereo not drawn) [Example 61, 8-(3-chloro-4-fluorophenyl)-2,3,4,5,6,8-hexahydro-7H-cyclopenta[b]thieno [2,3-e]pyridin-7-one, 1,1-dioxide]: the “Landrace Pig Bladder Index” value is 0.71, the “Landrace Pig Bladder pD2” value is recorded as 7.1 and the maximal response (Emax) came out at 100%.

As to `O=C1CCCC2=C1C(c1ccc(Cl)c(Cl)c1)C1=C(CCS1(=O)=O)N2` (single isomer, unassigned; (-)) [Example 96, (−)-9-(3,4-dichlorophenyl)-2,3,5,6,7,9-hexahydrothieno[3,2-b]guinolin-8(4H)-one, 1,1-dioxide], the “Landrace Pig Bladder Index” value is reported as 0.37, the “Landrace Pig Bladder Efficacy (% P1075)” value is recorded as 97 % P1075 and the “Landrace Pig Bladder pD2” value was determined as 6.5.

For the molecule `CC1=C(S(C)(=O)=O)C(c2ccc(C)c([N+](=O)[O-])c2)C2=C(CCCC2=O)N1` (stereo not drawn) [Example 23, 4,6,7,8-tetrahydro-2-methyl-4-(4-methyl-3-nitrophenyl)-3-(methylsulfonyl)-5(1H)-quinolinone], the “Landrace Pig Bladder Index” value is recorded as 0.0053, the “Landrace Pig Bladder pD2” value amounted to 4.4 and the Emax worked out at 81%.

For the molecule `O=C1CCCC2=C1C(c1cc(Br)cs1)C1=C(CCS1(=O)=O)N2` (single isomer, unassigned) [Example 180, 9-(4-bromo-2-thienyl)-2,3 5,6,7,9-hexahydrothieno[3 2-b]quinolin-8(4H)-one 1,1-dioxide], the “Landrace Pig Bladder Index” value was determined as 0.036, the “Landrace Pig Bladder pD2” value is 5.5 and the Emax came out at 71%.

Take `O=S1(=O)CCC2=C1C(c1ccc(F)c(Br)c1)C=C(C(F)(F)F)N2` (single isomer, unassigned) [Example 136, 7-(3-bromo-4-fluorophenyl)-5-(trifluoromethyl)-2, 3 4 7-tetrahydrothieno[3 2-b]pyridine, 1,1-dioxide]: the “Landrace Pig Bladder Index” value turned out to be 0.073, the “Landrace Pig Bladder pD2” value amounted to 5.9 and the Emax worked out at 92%.

For the molecule `O=C1CCCC2=C1C(c1ccc(F)c(C(F)(F)F)c1)C1=C(CCS1(=O)=O)N2` (single isomer, unassigned; (-)) [Example 139], the “Landrace Pig Bladder Index” value came out at 0.13, the “Landrace Pig Bladder pD2” value is reported as 6.0 and the Emax worked out at 100%.

With `O=C1CCC2=C1C(c1ccc(F)c(Br)c1)C1=C(CCCS1(=O)=O)N2` (stereo not drawn) [Example 40, 9-(3-bromo-4-fluorophenyl)-3,4,5,6,7,9-hexahydrocyclopenta[b]thiopyrano [2.3-e]pyridin-8(2H)-one, 1,1-dioxide], the “Landrace Pig Bladder Index” value is 0.46, the “Landrace Pig Bladder pD2” value is 6.9 and the Emax came out at 98%.

Turning to `Cc1ccc(C2C3=C(CCCC3=O)NC3=C2S(=O)(=O)CC3)cc1C#N` (single isomer, unassigned) [Example 155, 9-(3-cvano-4-methylphenyl)-2,3 5,6,7,9-hexahydrothieno[3,2-b]guinolin-8(4H)-one, 1,1-dioxide], the “Landrace Pig Bladder Index” value amounted to 0.026, the “Landrace Pig Bladder pD2” value was 5.4 and the Emax stood at 98%.

Regarding `O=C1CCCC2=C1C(c1ccc(Br)s1)C1=C(CCS1(=O)=O)N2` (single isomer, unassigned) [Example 167, 9-(5-bromo-2-thienyl)-2,3,5,6,7,9-hexahydrothieno[3,2-b]quinolin-8(4H)-one, 1,1-dioxide], the “Landrace Pig Bladder Index” value amounted to 0.062, the “Landrace Pig Bladder pD2” value was determined as 5.9 and the Emax worked out at 100%.

In the case of `O=C1CCC2=C1C(c1ccc(Br)c(Br)c1)C1=C(CCS1(=O)=O)N2` (stereo not drawn) [Example 72], the “Landrace Pig Bladder Index” value came to 0.53, the “Landrace Pig Bladder pD2” value is on record as 6.6 and the maximal effect (Emax) was 97%.

With `O=C1CCCC2=C1C(c1cc(Br)c(F)cc1O)C1=C(CCS1(=O)=O)N2` (stereo not drawn) [Example 121, 9-(5-bromo-4-fluoro-2-hydroxyphenyl)-2.35,6,7,9-hexahydrothieno[3.2-b]quinolin-8(4H)-one, 1,1-dioxide], the “Landrace Pig Bladder Index” value is listed as 0.078, the “Landrace Pig Bladder pD2” value came to 6.2 and the maximal response (Emax) amounted to 100%.

For `O=C1CCCC2=C1C(c1ccc(Cl)c(C(F)(F)F)c1)C1=C(CCS1(=O)=O)N2` (single isomer, unassigned; (-)) [Example 172, (−)-9-[4-chloro-3-(trifluoromethyl)vhenyl]-2,3,5,6,79-hexahydrothieno[3,2-b]quinolin-8(4H)-one, 1,1-dioxide], the “Landrace Pig Bladder Index” value worked out at 0.12, the “Landrace Pig Bladder pD2” value was 6.2 and the Emax stood at 100%.

Regarding `N#Cc1cccc(C2C3=C(CCCC3=O)NC3=C2S(=O)(=O)CCC3)c1` (stereo not drawn) [Example 5, 10-(3-cyanophenyl)-3,4,6,7,8,10-hexahydro-2H-thiopyrano [3,2-b]quinolin-9(5H)-one, 1,1-dioxide], the “Landrace Pig Bladder Index” value was 0.0076, the “Landrace Pig Bladder pD2” value was 4.8 and the Emax was 96%.
